Assay results reported in article PMC8746858 (Molecules, 2021).
Values after ≈ are worked out from the molar mass of the structure shown. Where two headings read alike, the source gives them in different places.

Legend:
[1] = Solubility in water, HPLC of saturated solutions
Procedure: Then, the obtained saturated solutions were diluted 100 times and analyzed. […] A mixture of 50% acetonitrile and 50% water was used as the mobile phase. The flow rate was 1 cm^3·min^−1. The column temperature was 30 °C. A Luna® Omega 3 µm Polar C18 100 Å column with dimensions of 150 × 4.6 mm was used. The injection volume for these samples was 50 mm^3. Each measurement was performed in triplicate, and the results were averaged.

[2] = system: fibroblasts (NIH/3T3 cells); experiment: cells
Procedure: (§1) Finally, control experiments with non-treated cells were performed.
The effect of the compounds on the viability of murine 3T3 fibroblasts was estimated using NRU assay. After the incubation time (24 h) cells, media were removed, then to each well we added 100 µL of medium containing neutral red (50 µg/mL). […] The plates were shaken for 10 min at room temperature. Then, the absorption at 540 nm was measured using a microplate reader (Biosan). The results were calculated for each sample concentration as a percentage of medium control. The values are presented as mean ± standard deviation of three independent experiments.

MTT viability assay = conditions: human, HaCaT keratinocytes
Procedure: as §1
(§2) We applied an assay based on the reduction of methyl thiazol tetrazolium bromide (MTT) to assess the effect of the compounds on the viability of HaCaT cells. […] After that, the cells were lysed with a solution of DMSO:ethanol (1:1 v/v). The absorbance of the reduced formazan dye product was read at 560 nm in a microplate reader (Biosan). The results were calculated for each sample concentration as a percentage of medium control. The values are presented as mean ± standard deviation of three independent experiments.

[3] = system: human keratinocytes (HaCaT cells); experiment: MTT viability assay; conditions: for IC50: HaCaT, 24 h; for Viability of HaCaT after 48 h Treatment with 0.4 mM IL or SA: calculated as percentage of medium control, in %
Procedure: as §1, §2

[4] = TG, air atmosphere, 10 °C·min^−1
[5] = Solubility in typical solvents, modified Vogel method; conditions: 25 °C; for Solubility in Water (63.1): ET(30) in parentheses
Text: For this purpose, dimethyl sulfoxide, ethanol, chloroform, ethyl acetate, diethyl ether, toluene, and n-hexane were used as solvents.

IL-6 = IL-6 ELISA in supernatant of LPS-stimulated HaCaT cells; assay type: cell-based, human; conditions: 12 h pretreatment then LPS 12 h
Procedure: HaCaT cells were seeded in a 24-well plate at a density of 5 × 10^4 cells/well and maintained in DMEM high glucose with 10% FBS until an 80% confluent monolayer was reached. […] Control experiments with LPS-treated cells only were conducted. Controls with cells treated with neither compounds nor LPS were also performed. After that, the cell culture supernatant was collected, and the IL-6 cytokine was measured using an ELISA kit.

[6] = NIH/3T3, 24 h, neutral red uptake
[7] = read-out: IC50 (in mM), NIH/3T3, 24 h, neutral red uptake
[8] = the two tested concentrations (1 and 10 µM)

Row | Compound | Tonset, the onset of the thermal degradation [4] | Solubility in Chloroform (39.1) [5] | Solubility in DMSO (45.1) [5] | Solubility in Diethyl ether (34.5) [5] | Solubility in Ethanol (51.9) [5] | Solubility in Ethyl Acetate (38.1) [5] | Solubility in Toluene (33.9) [5] | Solubility in n-Hexane (31.0) [5] | Solubility in Water (63.1) [5] | IC50 [2, 6] | IC50 [2, 7] | Solubility in Water at 25 °C ([1]; g of compound per dm^3) | Viability of HaCaT after 48 h Treatment with 0.4 mM IL or SA [3] | IC50 ([3]; MTT) | IC50 ([3]; read-out: IC50 (in mM), MTT) | further results
1 | O=C(O)c1ccccc1O [SA, Salicylic acid, reference compound] | 171.3 °C | +/− (partially soluble 33–100 mg·cm^−3) | + (soluble >100 mg·cm^−3) | + (soluble >100 mg·cm^−3) | + (soluble >100 mg·cm^−3) | + (soluble >100 mg·cm^−3) | +/− (partially soluble 33–100 mg·cm^−3) | − (insoluble < 33 mg·cm^−3) | +/− (partially soluble 33–100 mg·cm^−3) |  |  |  |  |  |  | Solubility in Water at 25 °C ([1]; amount of active compound (SA) per dm^3): 3.852 ± 0.004 g SA·dm^−3; solubility ([1]; water): 3852 ± 4 µg/mL (≈ 27.9 mM); IC50 ([2]; Mus musculus, NIH3T3, 24 h): 300 ± 6 µg/mL; IC50 ([2]; Mus musculus, NIH3T3, 24 h, read-out: IC50 (in mM)): ~2.2 mM; viability at 48 h, 0.4 mM (MTT viability assay): 71 ± 3%; IC50 ([3]; Homo sapiens): 200 ± 100 µg/mL; IC50 ([3]; Homo sapiens, read-out: IC50 (in mM)): ~1.6 mM
2 | CCOC(=O)[C@@H](N)CC(C)C.O=C(O)c1ccccc1O [[LeuOEt][SA], L-leucine ethyl ester salicylate] |  |  |  |  |  |  |  |  |  | 894 ± 12 µg/mL | ~3 mM |  |  |  |  | Level of IL-6 in LPS-stimulated HaCaT (IL-6; 1 µM): no effect or negligible inhibition of the IL-6 production
3 | CCOC(=O)[C@@H](N)Cc1ccccc1.O=C(O)c1ccccc1O [[PheOEt][SA], L-phenylalanine ethyl ester salicylate] | 181.1 °C | + (soluble >100 mg·cm^−3) | + (soluble >100 mg·cm^−3) | + (soluble >100 mg·cm^−3) | +/− (partially soluble 33–100 mg·cm^−3) | +/− (partially soluble 33–100 mg·cm^−3) | − (insoluble < 33 mg·cm^−3) | − (insoluble < 33 mg·cm^−3) | − (insoluble < 33 mg·cm^−3) | 1062 ± 15 µg/mL | ~3.2 mM | 9.732 ± 0.010 g·dm^−3 | 105 ± 4 | 2200 ± 150 µg/mL | ~6.6 mM | Level of IL-6 in LPS-stimulated HaCaT (IL-6; [8]): comparable to those produced by 1 µM SA
4 | CCCOC(=O)[C@@H](N)Cc1ccccc1.O=C(O)c1ccccc1O [[PheOPr][SA], L-phenylalanine propyl ester salicylate] | 185.0 °C | + (soluble >100 mg·cm^−3) | + (soluble >100 mg·cm^−3) | + (soluble >100 mg·cm^−3) | +/− (partially soluble 33–100 mg·cm^−3) | +/− (partially soluble 33–100 mg·cm^−3) | − (insoluble < 33 mg·cm^−3) | − (insoluble < 33 mg·cm^−3) | − (insoluble < 33 mg·cm^−3) | 662 ± 9 µg/mL | ~1.9 mM | 1.143 ± 0.001 g·dm^−3 | 93 ± 4 | 650 ± 100 µg/mL | ~1.9 mM | Level of IL-6 in LPS-stimulated HaCaT (IL-6; 1 µM): completely protected from inflammation; Level of IL-6 in LPS-stimulated HaCaT (IL-6; 10 μM): no effect or negligible inhibition of the IL-6 production
5 | CCCCOC(=O)[C@@H](N)C(C)C.O=C(O)c1ccccc1O [[ValOBu][SA], L-valine butyl ester salicylate] | 171.8 °C | + (soluble >100 mg·cm^−3) | + (soluble >100 mg·cm^−3) | + (soluble >100 mg·cm^−3) | +/− (partially soluble 33–100 mg·cm^−3) | + (soluble >100 mg·cm^−3) | + (soluble >100 mg·cm^−3) | − (insoluble < 33 mg·cm^−3) | +/− (partially soluble 33–100 mg·cm^−3) | 309 ± 9 µg/mL | ~1 mM | 14.490 ± 0.014 g·dm^−3 | 74 ± 1 | 600 ± 200 µg/mL | ~1.9 mM | 
6 | CCOC(=O)[C@@H](N)C(C)C.O=C(O)c1ccccc1O [[ValOEt][SA], L-valine ethyl ester salicylate] | 157.6 °C | + (soluble >100 mg·cm^−3) | + (soluble >100 mg·cm^−3) | + (soluble >100 mg·cm^−3) | + (soluble >100 mg·cm^−3) | + (soluble >100 mg·cm^−3) | + (soluble >100 mg·cm^−3) | − (insoluble < 33 mg·cm^−3) | +/− (partially soluble 33–100 mg·cm^−3) | 700 ± 8 µg/mL | ~2.5 mM | 26.070 ± 0.026 g·dm^−3 | 74 ± 2 | 600 ± 10 µg/mL | ~2.1 mM | Level of IL-6 in LPS-stimulated HaCaT (IL-6; [8]): comparable to those produced by 1 µM SA
7 | CCCOC(=O)[C@@H](N)C(C)C.O=C(O)c1ccccc1O [[ValOPr][SA], L-valine propyl ester salicylate] | 177.9 °C | + (soluble >100 mg·cm^−3) | + (soluble >100 mg·cm^−3) | + (soluble >100 mg·cm^−3) | + (soluble >100 mg·cm^−3) | + (soluble >100 mg·cm^−3) | + (soluble >100 mg·cm^−3) | − (insoluble < 33 mg·cm^−3) | +/− (partially soluble 33–100 mg·cm^−3) | 1310 ± 17 µg/mL |  | 21.789 ± 0.024 g·dm^−3 | 74 ± 2 | 500 ± 50 µg/mL | ~1.8 mM | 
8 | CC(C)OC(=O)[C@@H](N)C(C)C.O=C(O)c1ccccc1O [[ValOiPr][SA], L-valine isopropyl ester salicylate] | 163.1 °C | + (soluble >100 mg·cm^−3) | + (soluble >100 mg·cm^−3) | +/− (partially soluble 33–100 mg·cm^−3) | + (soluble >100 mg·cm^−3) | +/− (partially soluble 33–100 mg·cm^−3) | + (soluble >100 mg·cm^−3) | − (insoluble < 33 mg·cm^−3) | +/− (partially soluble 33–100 mg·cm^−3) | 658 ± 7 µg/mL | ~2.2 mM | 18.458 ± 0.018 g·dm^−3 | 66 ± 2 | 900 ± 50 µg/mL | ~3.1 mM | Level of IL-6 in LPS-stimulated HaCaT (IL-6; 10 μM): no effect or negligible inhibition of the IL-6 production
